Values after ≈ are worked out from the molar mass of the structure shown.
Experiments:
[1] = Acute toxicity on rats via oral administration; settings: 4500 mg/kg
Experimental: Both mice and rats take drugs orally (levoisovalerylspiramycin I, II and III prepared in Embodiment 1)
After observing the mice and rats for two days before test, and those without abnormal conditions is carried out test. Don't give anything to eat to mice and rats overnight before test. […] […] Observe those taking drugs for one week for toxic reaction and death.

[2] = system: streptococcus pneumoniae18; assay: Curative effect on mouse with abdominal infection (ED50); assay type: in vivo, streptococcus pneumoniae; settings: Streptococcus, 168 h, streptococcus pneumoniae18, challenging dose 9.6 × 10^4 CFU/0.5 ml, deaths in 7 days, Bliss, read-out: ED50
Experimental: (§1) Test method: preparation of infection bacterial liquid: taking out the test bacterial liquid which is kept in a refrigerator at −80[…] to room temperature for about 1 h, then inoculating streptococcus pneumonia, pyogenic streptococcus and enterococcus absorbing 0.1 ml bacterial liquid respectively to 2 ml MH broth (add 10% inactivated horse serum), and inoculating 0.1 ml bacterial liquid of staphylococcus aureus to 2 ml MH broth according to the same method above; putting it in an incubator at 37[…] to be cultivated for 18 h, to obtain original bacterial liquid; diluting the original bacterial liquid with 5% gastric mucin to make animals infected with 100% lethal bacteria, to obtain infection bacterial liquid.
(§2) The clinical route of administration of carrimycin is proposed to be oral administration, thus intragastric administration is adopted in carrimychin test. Levoisovalerylspiramycin I (obtained in Embodiment 1) and of crystalline compound of levoisovalerylspiramycin I (prepared in Embodiment 27) are fed to animals via […].
(§3) After the mice are infected, respectively feed each mouse 0.2 ml via intragastric administration at 0.5 to 6 h, and they have no adverse reaction. Observe the number of deaths in 7 days, and calculate the 50% effective dose (ED50) of each drug for the infected mouse and compare the protective effect of drugs by Bliss program.

[3] = system: streptococcus pneumoniae3; assay: as above; assay type: in vivo, streptococcus pneumoniae; settings: Streptococcus, 168 h, streptococcus pneumoniae3, challenging dose 6.4 × 10^4 CFU/0.5 ml, deaths in 7 days, Bliss, read-out: ED50
Experimental: as §1, §2, §3

[4] = system: streptococcus pneumoniae57; assay: as above; assay type: in vivo, streptococcus pneumoniae; settings: Streptococcus, 168 h, streptococcus pneumoniae57, challenging dose 8.8 × 10^4 CFU/0.5 ml, deaths in 7 days, Bliss, read-out: ED50
Experimental: as §1, §2, §3

[5] = system: pyogenic streptococcus 102; assay: as above; assay type: in vivo; settings: Streptococcus, 102, 168 h, pyogenic streptococcus 102, challenging dose 7.8 × 10^4 CFU/0.5 ml, deaths in 7 days, Bliss, read-out: ED50
Experimental: as §1, §2, §3

[6] = system: pyogenic streptococcus 119; assay: as above; assay type: in vivo; settings: Streptococcus, 119, 168 h, pyogenic streptococcus 119, challenging dose 4.9 × 10^4 CFU/0.5 ml, deaths in 7 days, Bliss, read-out: ED50
Experimental: as §1, §2, §3

[7] = system: pyogenic streptococcus 772; assay: as above; assay type: in vivo; settings: Streptococcus, 772, 168 h, pyogenic streptococcus 772, challenging dose 6.9 × 10^3 CFU/0.5 ml, deaths in 7 days, Bliss, read-out: ED50
Experimental: as §1, §2, §3

[8] = system: streptococcus pneumoniae3; assay: MIC against the infecting test organism; assay type: cell-based, streptococcus pneumoniae; settings: read-out: MIC
[9] = system: streptococcus pneumoniae18; assay: MIC against the infecting test organism; assay type: cell-based, streptococcus pneumoniae; settings: read-out: MIC
[10] = system: streptococcus pneumoniae57; assay: MIC against the infecting test organism; assay type: cell-based, streptococcus pneumoniae; settings: read-out: MIC
[11] = system: pyogenic streptococcus 102; assay: MIC against the infecting test organism; assay type: cell-based; settings: read-out: MIC
[12] = system: pyogenic streptococcus 119; assay: MIC against the infecting test organism; assay type: cell-based; settings: read-out: MIC
enterococcus32 = assay: MIC against the infecting test organism; assay type: cell-based, enterococcus; settings: Enterococcus, read-out: MIC
staphylococcus aureus76 = assay: MIC against the infecting test organism; assay type: cell-based, staphylococcus aureus; settings: read-out: MIC
staphylococcus aureus12 = assay: MIC against the infecting test organism; assay type: cell-based, staphylococcus aureus; settings: read-out: MIC
staphylococcus aureus21 = assay: MIC against the infecting test organism; assay type: cell-based, staphylococcus aureus; settings: read-out: MIC
[13] = system: pyogenic streptococcus (93); assay: Clinical isolates, agar double dilution method; assay type: cell-based; settings: 93 clinical isolates of pyogenic streptococcus; for MIC50: read-out: MIC50; for MIC90: read-out: MIC90
enterococcus (106) = assay: Clinical isolates, agar double dilution method; assay type: cell-based; settings: 106 clinical isolates of enterococcus; for MIC50: read-out: MIC50; for MIC90: read-out: MIC90
[14] = system: hemophilus influenzae (37); assay: Clinical isolates, agar double dilution method; assay type: cell-based; settings: 37 clinical isolates of hemophilus influenzae; for MIC50 / MIC90: Haemophilus influenzae; for MIC50: read-out: MIC50; for MIC90: read-out: MIC90
gonococcus (10) = assay: Clinical isolates, agar double dilution method; assay type: cell-based; settings: 10 clinical isolates of gonococcus; for MIC50: read-out: MIC50; for MIC90: read-out: MIC90
[15] = system: Chlamydia Trachomatis B/TW-5/OT; assay: Chlamydia in vitro MIC, McCoy cells, immunofluorescence; assay type: cell-based; settings: 48 hours, read-out: MIC
[16] = system: Chlamydia Pneumoniae CWL-029; assay: Chlamydia in vitro MIC, HEp-2 cells, immunofluorescence; assay type: cell-based; settings: Chlamydia pneumoniae, 72 h, Chlamydia Pneumoniae CWL-029, HEp-2 cells, read-out: MIC

Compound	ED50 [2]	ED50 [3]	ED50 [4]	ED50 [5]	ED50 [6]	ED50 [7]	MIC [8]	MIC [9]	MIC [10]	MIC [11]	MIC [12]	MIC (enterococcus32)	MIC (staphylococcus aureus76)	MIC (staphylococcus aureus21)	MIC50 [13]	MIC90 [13]	MIC50 (enterococcus (106))	MIC90 (enterococcus (106))	MIC50 [14]	MIC90 [14]	other results
COC1C(O)CC(=O)OC(C)C/C=C/C=C/C(OC2CCC(N(C)C)C(C)O2)C(C)CC(CC=O)C1OC1OC(C)C(OC2CC(C)(O)C(OC(=O)CC(C)C)C(C)O2)C(N(C)C)C1O (stereo not drawn) [Levoisovalerylspiramycin I, levoisovalerylspiramycin I]	9.51 mg/kg	9.73 mg/kg	13.9 mg/kg	66.4 mg/kg	57.2 mg/kg	26.1 mg/kg	0.12 µg/mL (≈ 0.129 µM)	0.03 µg/mL (≈ 0.0324 µM)	0.06 µg/mL (≈ 0.0647 µM)	0.12 µg/mL (≈ 0.129 µM)	0.12 µg/mL (≈ 0.129 µM)	0.5 µg/mL (≈ 0.539 µM)	0.5 µg/mL (≈ 0.539 µM)	0.5 µg/mL (≈ 0.539 µM)	0.25 µg/mL (≈ 0.27 µM)	32 µg/mL (≈ 34.5 µM)	1 µg/mL (≈ 1.08 µM)	32 µg/mL (≈ 34.5 µM)	0.12 µg/mL (≈ 0.129 µM)	1 µg/mL (≈ 1.08 µM)	LD50 at 1 week ([1]; rat, in vivo, po): > 4500 mg/kg; Mortality rate (%) ([1]; rats, oral): 15%; mortality ([1]; rats, oral, deaths of 20 animals, observed one week): 3; MIC (staphylococcus aureus12): 1 µg/mL (≈ 1.08 µM); MIC range [14]: 0.03 to 32 µg/mL; MIC range (gonococcus (10)): 0.12 to 16 µg/mL; MIC50 (gonococcus (10)): 1 µg/mL (≈ 1.08 µM); MIC90 (gonococcus (10)): 4 µg/mL (≈ 4.31 µM); MIC [15]: 0.25 µg/mL (≈ 0.27 µM); MIC [16]: 0.016 µg/mL (≈ 0.0173 µM)
COC1C(OC(C)=O)CC(=O)OC(C)C/C=C/C=C/C(OC2CCC(N(C)C)C(C)O2)C(C)CC(CC=O)C1OC1OC(C)C(OC2CC(C)(O)C(OC(=O)CC(C)C)C(C)O2)C(N(C)C)C1O (stereo not drawn) [Levoisovalerylspiramycin II, levoisovalerylspiramycin II]	8.98 mg/kg	8.99 mg/kg	13.1 mg/kg	63.2 mg/kg	52.8 mg/kg	24.6 mg/kg	0.12 µg/mL (≈ 0.124 µM)	0.03 µg/mL (≈ 0.031 µM)	0.06 µg/mL (≈ 0.0619 µM)	0.12 µg/mL (≈ 0.124 µM)	0.12 µg/mL (≈ 0.124 µM)	0.25 µg/mL (≈ 0.258 µM)	0.25 µg/mL (≈ 0.258 µM)	0.5 µg/mL (≈ 0.516 µM)	0.25 µg/mL (≈ 0.258 µM)	32 µg/mL (≈ 33 µM)	1 µg/mL (≈ 1.03 µM)	16 µg/mL (≈ 16.5 µM)	0.12 µg/mL (≈ 0.124 µM)	1 µg/mL (≈ 1.03 µM)	LD50 at 1 week ([1]; rat, in vivo, po): > 4500 mg/kg; Mortality rate (%) ([1]; rat, in vivo, po, 1 week): 15%; mortality ([1]; rat, in vivo, po, 1 week): 3; MIC (staphylococcus aureus12): 1 µg/mL (≈ 1.03 µM); MIC range [14]: 0.03 to 32 µg/mL; MIC range (gonococcus (10)): 0.12 to 16 µg/mL; MIC50 (gonococcus (10)): 1 µg/mL (≈ 1.03 µM); MIC90 (gonococcus (10)): 4 µg/mL (≈ 4.13 µM); MIC [15]: 0.25 µg/mL (≈ 0.258 µM); MIC [16]: ≤ 0.016 µg/mL
CCC(=O)OC1CC(=O)OC(C)C/C=C/C=C/C(OC2CCC(N(C)C)C(C)O2)C(C)CC(CC=O)C(OC2OC(C)C(OC3CC(C)(O)C(OC(=O)CC(C)C)C(C)O3)C(N(C)C)C2O)C1OC (stereo not drawn) [Levoisovalerylspiramycin III, levoisovalerylspiramycin III]	8.98 mg/kg	8.99 mg/kg	13.1 mg/kg	63.2 mg/kg	52.8 mg/kg	24.6 mg/kg	0.12 µg/mL (≈ 0.122 µM)	0.03 µg/mL (≈ 0.0305 µM)	0.06 µg/mL (≈ 0.061 µM)	0.12 µg/mL (≈ 0.122 µM)	0.12 µg/mL (≈ 0.122 µM)	0.25 µg/mL (≈ 0.254 µM)	0.25 µg/mL (≈ 0.254 µM)	0.5 µg/mL (≈ 0.509 µM)	0.25 µg/mL (≈ 0.254 µM)	32 µg/mL (≈ 32.5 µM)	2 µg/mL (≈ 2.03 µM)	64 µg/mL (≈ 65.1 µM)	0.12 µg/mL (≈ 0.122 µM)	1 µg/mL (≈ 1.02 µM)	LD50 at 1 week ([1]; rat, in vivo, po): > 4500 mg/kg; Mortality rate (%) ([1]; rat, in vivo, po, 1 week): 15%; mortality ([1]; rat, in vivo, po, 1 week): 3; MIC (staphylococcus aureus12): 1 µg/mL (≈ 1.02 µM); MIC range [14]: 0.03 to 32 µg/mL; MIC range (gonococcus (10)): 0.12 to 16 µg/mL; MIC50 (gonococcus (10)): 1 µg/mL (≈ 1.02 µM); MIC90 (gonococcus (10)): 4 µg/mL (≈ 4.07 µM); MIC [15]: 0.25 µg/mL (≈ 0.254 µM); MIC [16]: 0.016 µg/mL (≈ 0.0163 µM)
CC[C@H]1OC(=O)[C@H](C)[C@@H](O[C@H]2C[C@@](C)(OC)[C@@H](O)[C@H](C)O2)[C@H](C)[C@@H](O[C@@H]2O[C@H](C)C[C@H](N(C)C)[C@H]2O)[C@](C)(O)C[C@@H](C)CN(C)[C@H](C)[C@@H](O)[C@]1(C)O [azithromycin, reference compound]	14.9 mg/kg	18.3 mg/kg	19 mg/kg	159 mg/kg	68.5 mg/kg	46.9 mg/kg	0.12 µg/mL (≈ 0.16 µM)	0.06 µg/mL (≈ 0.0801 µM)	0.12 µg/mL (≈ 0.16 µM)	0.5 µg/mL (≈ 0.668 µM)	0.25 µg/mL (≈ 0.334 µM)	1 µg/mL (≈ 1.34 µM)	1 µg/mL (≈ 1.34 µM)	4 µg/mL (≈ 5.34 µM)	0.5 µg/mL (≈ 0.668 µM)	> 64 µg/mL	8 µg/mL (≈ 10.7 µM)	> 64 µg/mL	0.25 µg/mL (≈ 0.334 µM)	2 µg/mL (≈ 2.67 µM)	MIC (staphylococcus aureus12): 2 µg/mL (≈ 2.67 µM); MIC range (gonococcus (10)): 0.12 to 64 µg/mL; MIC50 (gonococcus (10)): 2 µg/mL (≈ 2.67 µM); MIC90 (gonococcus (10)): 8 µg/mL (≈ 10.7 µM); MIC [15]: 0.5 µg/mL (≈ 0.668 µM); MIC [16]: 0.032 µg/mL (≈ 0.0427 µM)
CC[C@H]1OC(=O)[C@H](C)[C@@H](O[C@H]2C[C@@](C)(OC)[C@@H](O)[C@H](C)O2)[C@H](C)[C@@H](O[C@@H]2O[C@H](C)C[C@H](N(C)C)[C@H]2O)[C@](C)(O)C[C@@H](C)C(=O)[C@H](C)[C@@H](O)[C@]1(C)O [erythrocin, reference compound]	57.1 mg/kg	85.1 mg/kg	102 mg/kg	361 mg/kg	234 mg/kg	101 mg/kg	1 µg/mL (≈ 1.36 µM)	0.06 µg/mL (≈ 0.0818 µM)	0.25 µg/mL (≈ 0.341 µM)	0.5 µg/mL (≈ 0.681 µM)	0.5 µg/mL (≈ 0.681 µM)	2 µg/mL (≈ 2.73 µM)	1 µg/mL (≈ 1.36 µM)	4 µg/mL (≈ 5.45 µM)	0.5 µg/mL (≈ 0.681 µM)	> 64 µg/mL	4 µg/mL (≈ 5.45 µM)	> 64 µg/mL	0.06 µg/mL (≈ 0.0818 µM)	32 µg/mL (≈ 43.6 µM)	MIC range (gonococcus (10)): 0.12 to 64 µg/mL; MIC50 (gonococcus (10)): 1 µg/mL (≈ 1.36 µM); MIC90 (gonococcus (10)): 8 µg/mL (≈ 10.9 µM); MIC [15]: 0.5 µg/mL (≈ 0.681 µM); MIC [16]: ≤ 0.016 µg/mL

From patent US8778896B2, “Levoisovalerylspiramycin I, II or III, preparations, preparation methods and uses thereof” (Shenyang Tonglian Group Co., Ltd., priority 2010, dated 2014)
